# Key:
# [1] = Inhibition of DNA polymerase (unknown origin); parameters: species or system Homo sapiens
# [2] = molecular target: T1, Human immunodeficiency virus type 1 reverse transcriptase (Human immunodeficiency virus 1, UniProt Q72547); assay: Inhibition of HIV-1 RNase H
# [3] = molecular target: T1, Human immunodeficiency virus type 1 reverse transcriptase; assay: Inhibition of recombinant HIV-1 reverse transcriptase associated RNase H expressed in Escherichia coli BL21 (DE3) using 5-GTTTTCTTTTCCCCCCTGAC-3 Fluorescein/5CAAAAGAAAAGGGGGGACUG-3-Dabcyl as substrate incubated for 1 hr by multilabel counter plate reader method
# [4] = Inhibition of HIV-1 RNA-dependent […]; parameters: species or system Human immunodeficiency virus 1
# [5] = test system: Human immunodeficiency virus 1; assay: Antiviral activity against HIV-1 harboring L100I mutant infected in human MT4 cells assessed as virus-induced cytopathicity treated for 5 days by MTT assay; format: functional, organism-based; details: Human immunodeficiency virus 1, MT4, 120 h
# [6] = molecular target: T1, Human immunodeficiency virus type 1 reverse transcriptase; assay: Inhibition of N-terminal 6-his-tagged HIV-1 reverse transcriptase RNase H (427 to 560 residues) transfected in Escherichia coli BL21 (DE3)
# [7] = molecular target: T1, Human immunodeficiency virus type 1 reverse transcriptase; assay: Inhibition of recombinant HIV-1 reverse transcriptase associated RNA-dependent DNA polymerase activity incubated for 30 mins by liquid scintillation method
# [8] = Inhibition of Escherichia coli DNA polymerase I
# [9] = test system: Human immunodeficiency virus 1; assay: Antiviral activity against wild-type HIV-1 IIIB infected in human MT4 cells assessed as virus-induced cytopathicity treated for 5 days by MTT assay; format: functional, organism-based; details: Human immunodeficiency virus 1, IIIB, MT4, 120 h
# [10] = Cytotoxicity against HEK-293T cells assessed as reduction in cell growth measured for 72 hrs by MTT assay; format: toxicity, cell-based; details: human
# [11] = test system: Human immunodeficiency virus 1; assay: Antiviral activity against HIV-1 harboring reverse transcriptase […] mutant infected in human MT4 cells assessed as reduction in virus-induced cytopathic effect; format: functional, organism-based; details: Human immunodeficiency virus 1, MT4
# [12] = molecular target: T1, Human immunodeficiency virus type 1 reverse transcriptase; assay: Inhibition of HIV-1 reverse transcriptase associated RNA-dependent DNA polymerase
# [13] = test system: Hepatitis B virus; assay: Antiviral activity against HBV infected in human HepDES19 cells assessed as reduction in cccDNA accumulation by southern blot analysis; format: functional, organism-based
# [14] = molecular target: T1, Human immunodeficiency virus type 1 reverse transcriptase; assay: Inhibition of HIV-1 RNase H polymerase activity
# [15] = Cytotoxicity against african green monkey Vero E6 cells incubated for 24 hrs by Cell-titer 96 cell proliferation assay; format: toxicity, cell-based, Vero C1008; details: chlorocebus sabaeus
# [16] = test system: Human immunodeficiency virus 1; assay: Antiviral activity against HIV1; format: functional, organism-based
# [17] = test system: Hepatitis B virus; assay: Antiviral activity against HBV infected in AML12HBV10 cells assessed as reduction viral replication incubated for 48 hrs; format: functional, organism-based; details: AML12HBV10, 48 h
# [18] = test system: Human alphaherpesvirus 2; assay: Antiviral activity against HSV-2 infected in African green monkey Vero cells assessed as reduction in virus induced cytopathogenicity by plaque reduction assay; format: functional, organism-based; details: Human alphaherpesvirus 2, Vero
# [19] = test system: Human alphaherpesvirus 1; assay: Antiviral activity against HSV-1 KOS infected in African green monkey Vero cells assessed as reduction in virus induced cytopathogenicity by plaque reduction assay; format: functional, organism-based; details: Human alphaherpesvirus 1, KOS
# [20] = test system: Human alphaherpesvirus 1; assay: Antiviral activity against HSV-1 infected in African green monkey Vero cells by plaque reduction assay; format: functional, organism-based; details: Human alphaherpesvirus 1, Vero
# [21] = test system: TZM; assay: Cytotoxicity against human TZM-bl cells assessed as reduction in viability incubated for 48 hrs by MTT assay; format: functional
# [22] = test system: Human immunodeficiency virus 1; assay: Antiviral activity against wild type HIV-1 IIIB infected in human MT4 cells assessed as protection against virus-induced cytopathic effect incubated for 5 days by MTT assay; format: functional, organism-based; details: Human immunodeficiency virus 1, IIIB, MT4, 120 h
compound,measurement,setting,value
COc1ccc2ccccc2c1/C=N/NC(=O)c1ccc(O)c(O)c1,IC50,[1],> 50 µM
same,IC50,[2],15 µM
NC(=O)c1c(N)sc2c1CCCCC2,IC50,[3],2 µM
O=C1Nc2ccccc2/C1=N/Nc1nc(-c2ccc(O)c(O)c2)cs1,IC50,[4],1.4 µM
COC(=O)c1c(C)cc(O)c(=O)c(O)c1Br,EC50,[5],2.2 µM
CC(C)(C)c1ccc(C(=O)N/N=C/c2c(O)ccc3ccccc23)cc1,IC50,[6],3.5 µM
same,IC50,[7],0.8 µM
same,IC50,[8],12.5 µM
same,EC50,[9],1.5 µM
O=C(Oc1ccc2c(c1OC(=O)c1ccccc1)C(=O)c1ccccc1C2=O)c1ccccc1,CC50 at 72 h,[10],~100 µM
same,IC50,[4],12 µM
same,EC50,[11],> 100 µM
Nc1ccc(S(=O)(=O)N2CCN(C(=O)c3cc(O)c(O)c(O)c3)CC2)cc1,IC50,[12],> 50 µM
N#Cc1ccc(-c2csc(NN=C3C(=O)Nc4ccccc43)n2)cc1,IC50,[7],9.5 µM
same,IC50,[2],1.3 µM
Cn1c(-c2ccc(-c3ccccc3)cc2)cs/c1=N/N=C1\C(=O)Nc2ccc(Cl)cc21,IC50,[7],9.8 µM
same,IC50,[2],10 µM
O=C(Nc1sc2c(c1C(=O)Nc1ccccn1)CCCCC2)c1ccc(O)c(O)c1,IC50,[3],0.84 µM
COC(=O)c1c(C)cc(OC)c(=O)c(O)c1OC,EC50,[13],5.6 µM
same,IC50,[14],13.5 µM
COc1ccccc1C(=O)N1CCC(NC(=O)c2cc(O)c(O)c(O)c2)CC1,IC50,[12],39.9 µM
same,IC50,[14],13.1 µM
COc1cc(OC)cc(OC(=O)c2ccc(C(F)(F)F)cc2Nc2cc(Cl)ccc2C)c1,CC50 at 24 h,[15],> 50 µM
same,IC50,[12],16.1 µM
same,IC50,[4],16.1 µM
same,EC50,[16],5 µM
O=C(Nc1nc2n(n1)C(c1ccccc1)C=C(c1ccccc1)N2)c1ccc(O)c(O)c1 (stereo not drawn),IC50,[6],1.86 µM
same,IC50,[12],20.5 µM
COc1ccc(-c2cccc(C(N)=O)c2)cc1/C=N/Nc1nc(-c2ccc([N+](=O)[O-])cc2)cs1,IC50,[4],8 µM
same,IC50,[2],4.5 µM
COC(=O)c1c(C)cc(OC)c(=O)c(O)c1O,EC50,[17],0.93 µM
Cc1cc(O)c(=O)c(O)c(O)c1C(=O)c1ccc(-c2ccccc2)cc1,EC50,[18],0.05 µM
same,EC50,[19],0.052 µM
same,EC50,[20],0.052 µM
Nc1nn(C(=O)c2ccc(Cl)cc2)c(N)c1C(=S)Nc1ccccc1,IC50,[12],17 µM
same,IC50,[14],7 µM
same,CC50,[21],44 µM
same,EC50,[22],25 µM
COc1cc(C)c(C(=O)c2ccc(-c3ccccc3)cc2)c(O)c(O)c1=O,EC50,[20],0.22 µM
COc1ccc2ccccc2c1/C=N/NC(=O)c1ccc(C(C)(C)C)cc1,IC50,[1],2 µM
same,IC50,[2],3 µM
COc1c(/C=C/C(=O)c2ccc(-c3ccccc3)cc2)ccc2ccccc12,IC50,[4],4 µM
same,IC50,[2],6 µM
O=c1oc(-c2ccc(O)c(O)c2)nc2sc3ccccc3c12,IC50,[3],0.53 µM
COC(=O)c1c(C)cc(O)c(=O)c(O)c1O,EC50,[18],0.4 µM
same,EC50,[13],6 µM
same,IC50,[14],1.5 µM
same,EC50,[19],0.19 µM
same,EC50,[20],0.19 µM
CC1=CC(c2ccccc2)n2nc(NC(=O)CCCc3ccc(C)cc3)nc2N1 (stereo not drawn),IC50,[6],13.1 µM
same,IC50,[12],> 100 µM
O=C1c2ccccc2C(=O)c2c1ccc(O)c2O [ATHRAQUINONES A],IC50,[3],> 100 µM
same,IC50,[4],79 µM

# Reference: ChEMBL document CHEMBL5518155, “Recent advances on dual inhibitors targeting HIV reverse transcriptase associated polymerase and ribonuclease H” (Eur J Med Chem, 2023)
